Data published in US20240189235A1, “CATIONIC LIPIDS AND USES THEREOF” (MELLO BIOTECH TAIWAN CO., LTD., priority 2022, published 2024).

Tested on: Cy5-mir302a-siRNA
Assay: Encapsulation efficiency of LNPs for small RNAs (RiboGreen fluorescence)
Assay type: physicochemical
Conditions: Table 1 in words
Method: To produce the present composition, the present cationic lipids (compound 6 or 22), cholesterol, DEG-PEG 2000, and distearoylphosphatidylcholine (DSPC) were fully mixed in ethanol at a molar ratio of 50:38.5:1.5:10, and the total volume was brought to 500 μL, thereby producing a liquid formulation of lipid nanoparticles (LNPs). As for control group, D-lin-MC3-DMA (MC30), an ionizable amino lipid that conventionally used in LNPs preparation, was mixed with cholesterol, DEG-PEG 2000, and DSPC at the same molar ratio as the present LNPs. […]
The encapsulation ratio of liposomes for encapsulating miRNAs or siRNAs was determined by fluorescence reader (Infinite F200 Pro) with the aid of RNA quantification kit containing a fluorescent dye (RiboGreen). […] The cationic lipid-RNA complexes (typically with a total volume of 50 μL for each sample well) were then mixed with the reagent from the RNA quantification kit in each well. […] The amount of miRNAs or siRNAs were quantified by interpolating their […] at 535 nm to that of the standard curve, and the encapsulation efficiency (EE) was calculated by the following formula: […]
where Wt is the total amount of miRNAs or siRNAs released in the LNPs lysis suspension, and Wi is the total quantity of miRNAs or siRNAs added initially during preparation. […]

| Compound | Liposome formation and siRNA encapsulation |
| --- | --- |
| CCCCC/C=C\C/C=C\CCCCCCCC(=O)NCC(=O)OC(COC(=O)CN)COC(=O)CN [Compound 6, 2-(2-((9Z,12Z)-octadeca-9,12-dienamido)acetoxy)propane-1,3-diyl bis(2-aminoacetate)] | successfully formed liposomes and encapsulated siRNAs therein |
| CCCCCC/C=C\CCCCCCCC(=O)NCC(=O)OCC(COC(=O)CN)OC(=O)CNC(=O)CCCCCCC/C=C\CCCCCC (centres unmarked) [Compound 22, (Z)-3-(2-aminoacetoxy)propane-1,2-diyl bis(2-((Z)-hexadec-9-enamido)acetate)] | successfully formed liposomes and encapsulated siRNAs therein |
